Measurements taken from patent publication US20260166039A1 (SCHRÖDINGER, INC., priority 2022, published 2026).

Biological target: T1, Wee1 kinase domain (Homo sapiens, UniProt P30291)
T1 construct: Wee1 kinase domain was purchased from Carna (catalog #05-177); purchased Carna 05-177
Experiment: Wee1 Kinase Biochemical Assay (ADP-Glo)
Details: Wee1 kinase domain, 15 uM ATP, ADP-Glo
Protocol: Wee1 Kinase Biochemical Assay Protocol
Wee1 kinase domain was purchased from Carna (catalog #05-177). Wee1 kinase activity was determined with Poly(Lys,Tyr 4:1) hydrobromide as a substrate (Sigma-Aldrich) and by measuring ADP production using the ADP-Glo Kinase Assay kit (Promega) following the manufacturer's instructions. The kinase reaction was performed using the following conditions:
Buffer: 40 mM Tris-HCl, 20 mM magnesium chloride, supplemented with 0.1 mg/mL bovine serum albumin and 2 mM DTT. The final reaction mix contained 1 nM Wee1 enzyme, 15 uM ATP, and 2 ng/mL Poly(Lys,Tyr 4:1) hydrobromide substrate. The reaction time was 4 hours at 25° C.
The ADP-Glo signal was measured using the Envision plate reader and the percentage inhibition of kinase activity calculated for each inhibitor tested. Percent inhibition of Wee1 kinase activity was calculated based on the following formula.
[formula] • SSample: the signal of compounds • SHigh Ctrl: the signal of high control (DMSO) • SLow Ctrl: the signal of low control (positive control Wee1 inhibitor at saturating concentration)

T1 sequence (P30291 299-569 limits assumed): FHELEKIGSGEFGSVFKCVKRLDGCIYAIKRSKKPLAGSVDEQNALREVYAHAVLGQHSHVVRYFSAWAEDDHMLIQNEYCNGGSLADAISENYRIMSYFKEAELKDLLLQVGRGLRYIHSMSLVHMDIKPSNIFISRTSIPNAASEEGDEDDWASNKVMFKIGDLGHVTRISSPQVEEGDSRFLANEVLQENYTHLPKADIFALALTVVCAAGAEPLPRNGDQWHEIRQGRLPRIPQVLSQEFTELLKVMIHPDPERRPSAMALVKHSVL

Row | Compound | IC50 [nM]
1 | CNC(=O)c1ccc(Nc2ncc3c(n2)N(c2cccc(N=S(C)(C)=O)n2)[C@H]2CC(C)(C)OC[C@@]32C)cc1 (single isomer, unassigned) [Example 116] | 100 to 1000
2 | CNC(=O)c1ccc(Nc2ncc3c(n2)N(c2cccc(N=S(C)(C)=O)n2)C2CC(C)(C)OCC32C)cc1F (single isomer, unassigned) [Example 118] | ≥ 1000
3 | CN1C[C@H]2C[C@@H]1CN2c1ccc(Nc2ncc3c(n2)N(c2cccc(N=S(C)(C)=O)n2)[C@H]2CC(C)(C)OC[C@@]32C)cc1 (single isomer, unassigned) [Example 121] | 100 to 1000
4 | CN1C[C@@H]2C[C@H]1CN2c1ccc(Nc2ncc3c(n2)N(c2cccc(N=S(C)(C)=O)n2)[C@H]2CC(C)(C)OC[C@@]32C)cc1 (single isomer, unassigned) [Example 123] | 100 to 1000
5 | CN1CCC[C@@H]1c1ccc(Nc2ncc3c(n2)N(c2cccc(N=S(C)(C)=O)n2)[C@H]2CC(C)(C)OC[C@@]32C)cc1 (single isomer, unassigned) [Example 128] | 100 to 1000
6 | CN1CC[C@@H](c2ccc(Nc3ncc4c(n3)N(c3cccc(N=S(C)(C)=O)n3)[C@H]3CC(C)(C)OC[C@@]43C)cc2)C1 (single isomer, unassigned) [Example 130] | 100 to 1000
7 | CN1CC[C@H](c2ccc(Nc3ncc4c(n3)N(c3cccc(N=S(C)(C)=O)n3)[C@H]3CC(C)(C)OC[C@@]43C)cc2)C1 (single isomer, unassigned) [Example 134] | 100 to 1000
8 | CN1CCC(c2ccc(Nc3ncc4c(n3)N(c3cccc(N=S(C)(C)=O)n3)[C@H]3CC(C)(C)OC[C@@]43C)cn2)CC1 (single isomer, unassigned) [Example 139] | 100 to 1000
9 | Cc1cc(Nc2ncc3c(n2)N(c2cccc(N=S(C)(C)=O)n2)[C@H]2CC(C)(C)OC[C@@]32C)ccc1[C@@H]1CCNC1 (single isomer, unassigned) [Example 144] | 100 to 1000
10 | CN1CCC(n2ccc(Nc3ncc4c(n3)N(c3cccc(N=S(C)(C)=O)n3)C3CC(C)(C)OCC43C)cc2=O)CC1 (single isomer, unassigned) [Example 151] | 100 to 1000
11 | CC1(C)C[C@@H]2N(c3cccc(N=S(C)(C)=O)n3)c3nc(Nc4ccc(O[C@H]5CCNC5)cc4)ncc3[C@]2(C)CO1 (single isomer, unassigned) [Example 154] | 100 to 1000
12 | CC1(C)C[C@@H]2N(c3cccc(N=S(C)(C)=O)n3)c3nc(Nc4ccc(O[C@@H]5CCNC5)cc4)ncc3[C@]2(C)CO1 (single isomer, unassigned) [Example 156] | 10 to 100
13 | CN1CC[C@H](Oc2ccc(Nc3ncc4c(n3)N(c3cccc(N=S(C)(C)=O)n3)[C@H]3CC(C)(C)OC[C@@]43C)cc2)C1 (single isomer, unassigned) [Example 158] | 100 to 1000
14 | CN1CC[C@@H](Oc2ccc(Nc3ncc4c(n3)N(c3cccc(N=S(C)(C)=O)n3)[C@H]3CC(C)(C)OC[C@@]43C)cc2)C1 (single isomer, unassigned) [Example 160] | 100 to 1000
15 | [2H]C([2H])([2H])N1CCC(c2ccc(Nc3ncc4c(n3)N(c3cccc(N=S(C)(C)=O)n3)[C@H]3CC(C)(C)OC[C@@]43C)cc2)CC1 (single isomer, unassigned) [Example 161] | 100 to 1000
16 | CC1(C)C[C@@H]2N(c3cccc(N=S(C)(C)=O)n3)c3nc(Nc4ccc(C5CNC5)cc4)ncc3[C@]2(C)CO1 (single isomer, unassigned) [Example 164] | 10 to 100
17 | CN1CC(c2ccc(Nc3ncc4c(n3)N(c3cccc(N=S(C)(C)=O)n3)[C@H]3CC(C)(C)OC[C@@]43C)cc2)C1 (single isomer, unassigned) [Example 166] | 10 to 100
18 | CN1CC[C@](C)(c2ccc(Nc3ncc4c(n3)N(c3cccc(N=S(C)(C)=O)n3)[C@H]3CC(C)(C)OC[C@@]43C)cc2)C1 (single isomer, unassigned) [Example 167] | 10 to 100
19 | CN1CC[C@@](C)(c2ccc(Nc3ncc4c(n3)N(c3cccc(N=S(C)(C)=O)n3)[C@H]3CC(C)(C)OC[C@@]43C)cc2)C1 (single isomer, unassigned) [Example 170] | 10 to 100
20 | CC1(C)C[C@@H]2N(c3cccc(N=S(C)(C)=O)n3)c3nc(Nc4ccc([C@]5(C)CCNC5)cc4)ncc3[C@]2(C)CO1 (single isomer, unassigned) [Example 172] | 10 to 100
21 | CC1(C)C[C@H]2N(c3cccc(N=S(C)(C)=O)n3)c3nc(Nc4ccc([C@@]5(C)CCNC5)cc4)ncc3[C@@]2(C)CO1 (single isomer, unassigned) [Example 174] | 10 to 100
22 | CN1C[C@H]2C[C@@H]1CN2c1ccc(Nc2ncc3c(n2)N(c2cccc(N=S(C)(C)=O)n2)[C@H]2CC(C)(C)OC[C@@]32C)cc1F (single isomer, unassigned) [Example 175] | 100 to 1000
23 | CN1CCC(c2ccc(Nc3ncc4c(n3)N(c3cccc(N=S(C)(C)=O)n3)[C@H]3CC(C)(C)OC[C@@]43C)cc2F)CC1 (single isomer, unassigned) [Example 178] | 100 to 1000
24 | CN1C[C@@H]2C[C@H]1CN2c1ccc(Nc2ncc3c(n2)N(c2cccc(N=S(C)(C)=O)n2)[C@H]2CC(C)(C)OC[C@@]32C)cc1F (single isomer, unassigned) [Example 179] | 100 to 1000
25 | CN1CC(c2ccc(Nc3ncc4c(n3)N(c3cccc(N=S(C)(C)=O)n3)[C@H]3CC(C)(C)OC[C@@]43C)cc2Cl)C1 (single isomer, unassigned) [Example 182] | 100 to 1000
26 | CN1CC(c2ccc(Nc3ncc4c(n3)N(c3cccc(N=S(C)(C)=O)n3)[C@H]3CC(C)(C)OC[C@@]43C)cc2F)C1 (single isomer, unassigned) [Example 185] | 100 to 1000
27 | CC1(C)C[C@@H]2N(c3cccc(N=S(C)(C)=O)n3)c3nc(Nc4cnn(C5CCOCC5)c4)ncc3[C@]2(C)CO1 (single isomer, unassigned) [Example 186] | 100 to 1000
28 | CN1Cc2cc(Nc3ncc4c(n3)N(c3cccc(N=S(C)(C)=O)n3)[C@H]3CC(C)(C)OC[C@@]43C)cnc2C1 (single isomer, unassigned) [Example 187] | ≥ 1000
29 | CC1(C)C[C@@H]2N(c3cccc(N=S(C)(C)=O)n3)c3nc(Nc4ccc(C5CNC5)c(F)c4)ncc3[C@]2(C)CO1 (single isomer, unassigned) [Example 189] | 100 to 1000

Next, values leading:

Row | IC50 [nM] | Compound
30 | < 10 | CNCc1cccc(N2c3nc(Nc4ccc([C@H]5CCC(=O)N5C)nc4)ncc3[C@@]3(C)COC(C)(C)C[C@@H]23)n1 (single isomer, unassigned) [Example 98]
31 | 10 to 100 | Cc1cc(Nc2ncc3c(n2)N(c2cccc(N=S(C)(C)=O)n2)[C@H]2CC(C)(C)OC[C@@]32C)ccc1C1CCN(C)CC1 (single isomer, unassigned) [Example 103]
32 | 10 to 100 | Cc1cc(Nc2ncc3c(n2)N(c2cccc(N=S(C)(C)=O)n2)[C@H]2CC(C)(C)OC[C@@]32C)ccc1N1CCN(C)CC1 (single isomer, unassigned) [Example 105]
33 | 10 to 100 | CN1Cc2cc(Nc3ncc4c(n3)N(c3cccc(N=S(C)(C)=O)n3)[C@H]3CC(C)(C)OC[C@@]43C)ccc2C2(CC2)C1 (single isomer, unassigned) [Example 108]
34 | 10 to 100 | CN1CCc2ccc(Nc3ncc4c(n3)N(c3cccc(N=S(C)(C)=O)n3)[C@H]3CC(C)(C)OC[C@@]43C)cc2C1 (single isomer, unassigned) [Example 110]
35 | 10 to 100 | CN1CCC(c2ccc(Nc3ncc4c(n3)N(c3cccc(N=S(C)(C)=O)n3)[C@@H]3CC(C)(C)OC[C@]43C)cc2)CC1 (single isomer, unassigned) [Example 111]
36 | 10 to 100 | Cc1cc(Nc2ncc3c(n2)N(c2cccc(N=S(C)(C)=O)n2)[C@H]2CC(C)(C)OC[C@@]32C)ccc1[C@@H]1COCCN1 (single isomer, unassigned) [Example 113]
37 | 10 to 100 | Cc1cc(Nc2ncc3c(n2)N(c2cccc(N=S(C)(C)=O)n2)[C@H]2CC(C)(C)OC[C@@]32C)ccc1[C@H]1COCCN1 (single isomer, unassigned) [Example 115]
38 | 10 to 100 | CN1CCC[C@H]1c1ccc(Nc2ncc3c(n2)N(c2cccc(N=S(C)(C)=O)n2)[C@H]2CC(C)(C)OC[C@@]32C)cc1 (single isomer, unassigned) [Example 125]
39 | 10 to 100 | CN1Cc2cc(Nc3ncc4c(n3)N(c3cccc(N=S(C)(C)=O)n3)[C@H]3CC(C)(C)OC[C@@]43C)ccc2C(C)(C)C1 (single isomer, unassigned) [Example 136]
40 | 10 to 100 | CC1(C)C[C@@H]2N(c3cccc(N=S(C)(C)=O)n3)c3nc(Nc4ccc([C@H]5CCNC5)cc4)ncc3[C@]2(C)CO1 (single isomer, unassigned) [Example 138]
41 | 10 to 100 | CN(C)C(=O)c1ccc(Nc2ncc3c(n2)N(c2cccc(N=S(C)(C)=O)n2)[C@H]2CC(C)(C)OC[C@@]32C)cc1 (single isomer, unassigned) [Example 142]
42 | 10 to 100 | Cc1cc(Nc2ncc3c(n2)N(c2cccc(N=S(C)(C)=O)n2)[C@H]2CC(C)(C)OC[C@@]32C)ccc1[C@@H]1CCN(C)C1 (single isomer, unassigned) [Example 146]
43 | 10 to 100 | Cc1cc(Nc2ncc3c(n2)N(c2cccc(N=S(C)(C)=O)n2)[C@H]2CC(C)(C)OC[C@@]32C)ccc1[C@H]1CCN(C)C1 (single isomer, unassigned) [Example 148]
44 | 10 to 100 | Cc1cc(Nc2ncc3c(n2)N(c2cccc(N=S(C)(C)=O)n2)[C@H]2CC(C)(C)OC[C@@]32C)ccc1[C@H]1CCNC1 (single isomer, unassigned) [Example 150]
